Data: ChEMBL document CHEMBL5376005, “Gut Metabolite Indoxyl Sulfate Has Selective Deleterious and Anticancer Effect on Colon Cancer Cells” (J Med Chem, 2023)
Structures can show the parent of a compound that is named as a salt. Active and inactive are the calls of the source. The calls are words filed in the database; no cut-off is given here.

Columns and labels:
HT-29 [1] = assay: Induction of morphological changes in human HT-29 cells assessed as formation of intracellular vesicles at 1.25 to 10 mM incubated for 24 to 72 hrs by bright field microscopy analysis; type: functional, cell-based; conditions: dose 1.25-10 mM, time 24-72 hrs
HCT-116 [2] = assay: Induction of morphological changes in human HCT-116 cells assessed as loss of adhesion with free floating in medium at 10 mM incubated for 24 to 72 hrs by bright field microscopy analysis; type: functional, cell-based; conditions: time 24-72 hrs
HT-29 [3] = assay: Induction of morphological changes in human HT-29 cells assessed as loss of adhesion with free floating in medium at 10 mM incubated for 24 to 72 hrs by bright field microscopy analysis; type: functional, cell-based; conditions: time 24-72 hrs
HCT-116 [4] = assay: Cytotoxicity against human HCT-116 cells assessed as reduction in colony formation pretreated for 48 hrs and further incubated for 10 days with media replacement for every alternate day; type: functional, cell-based; conditions: dose 1.25-10 mM
HT-29 [5] = assay: Cytotoxicity against human HT-29 cells assessed as reduction in colony formation pretreated for 48 hrs and further incubated for 10 days with media replacement for every alternate day; type: functional, cell-based; conditions: dose 1.25-10 mM
HCT-116 [6] = assay: Induction of cell cycle arrest in human HCT-116 cells assessed as increase in proportion of cells at G2/M phase at 5 mM incubated for 48 hrs by RNase A/Triton X-100/PI staining based flow cytometry analysis relative to control; type: functional
HCT-116 [7] = assay: Induction of cell cycle arrest in human HCT-116 cells assessed as increase in proportion of cells at G2/M phase at 10 mM incubated for 48 hrs by RNase A/Triton X-100/PI staining based flow cytometry analysis relative to control; type: functional
HT-29 [8] = assay: Induction of cell cycle arrest in human HT-29 cells assessed as increase in proportion of cells at G2/M phase at 5 mM incubated for 48 hrs by RNase A/Triton X-100/PI staining based flow cytometry analysis relative to control; type: functional
HT-29 [9] = assay: Induction of cell cycle arrest in human HT-29 cells assessed as increase in proportion of cells at G2/M phase at 10 mM incubated for 48 hrs by RNase A/Triton X-100/PI staining based flow cytometry analysis relative to control; type: functional
HCT-116 [10] = assay: Induction of cell cycle arrest in human HCT-116 cells assessed as increase in proportion of cells at G2/M phase incubated for 48 hrs by RNase A/Triton X-100/PI staining based flow cytometry analysis; type: functional; conditions: dose 1.25-10 mM
HT-29 [11] = assay: Induction of cell cycle arrest in human HT-29 cells assessed as increase in proportion of cells at G2/M phase incubated for 48 hrs by RNase A/Triton X-100/PI staining based flow cytometry analysis; type: functional; conditions: dose 1.25-10 mM
[12] = Toxicity in wild type BALB/c mouse assessed as reduction in body weight at 100 mM, ip measured after 12 weeks; type: organism-based; conditions: in vivo, 2016 h, 100000 µM
[13] = Toxicity in wild type BALB/c mouse assessed as reduction in body weight at 100 mM, REC measured after 12 weeks; conditions: in vivo, other, 2016 h, 100000 µM
[14] = Toxicity in wild type BALB/c mouse assessed as change in spleen length at 100 mM, ip measured after 12 weeks; type: organism-based; conditions: in vivo, 2016 h, 100000 µM
[15] = Toxicity in wild type BALB/c mouse assessed as change in spleen length at 100 mM, REC measured after 12 weeks; conditions: in vivo, other, 2016 h, 100000 µM
[16] = Toxicity in wild type BALB/c mouse assessed as change in intestinal length at 100 mM, ip measured after 12 weeks; type: organism-based, Intestine; conditions: in vivo, 2016 h, 100000 µM
[17] = Toxicity in wild type BALB/c mouse assessed as change in intestinal length at 100 mM, REC measured after 12 weeks; type: tissue-based, Intestine; conditions: in vivo, other, 2016 h, 100000 µM
[18] = Toxicity in wild type BALB/c mouse assessed as histological change in colon at 100 mM, ip measured after 12 weeks by H and E staining based light microscopic analysis; type: organism-based; conditions: in vivo, 2016 h, 100000 µM
[19] = Toxicity in wild type BALB/c mouse assessed as histological change in colon at 100 mM, REC measured after 12 weeks by H and E staining based light microscopic analysis; type: tissue-based; conditions: in vivo, other, 2016 h, 100000 µM
[20] = Toxicity in wild type BALB/c mouse assessed as histological change in rectum at 100 mM, ip measured after 12 weeks by H and E staining based light microscopic analysis; type: organism-based; conditions: in vivo, 2016 h, 100000 µM
[21] = Toxicity in wild type BALB/c mouse assessed as histological change in rectum at 100 mM, REC measured after 12 weeks by H and E staining based light microscopic analysis; conditions: in vivo, other, 2016 h, 100000 µM
[22] = Toxicity in wild type BALB/c mouse assessed as inflammatory symptoms by measuring change in fecal consistency at 100 mM, REC measured after 12 weeks; conditions: in vivo, other, 2016 h, 100000 µM
[23] = Toxicity in wild type BALB/c mouse assessed as inflammatory symptoms by measuring change in fecal consistency at 100 mM, ip measured after 12 weeks; type: organism-based; conditions: in vivo, 2016 h, 100000 µM
[24] = Toxicity in wild type BALB/c mouse assessed as inflammatory symptoms by measuring change in IL-17 level at 100 mM, ip measured for 0 to 3 months by ELISA; type: organism-based; conditions: in vivo, 100000 µM, time 0-3 months
[25] = Toxicity in wild type BALB/c mouse assessed as inflammatory symptoms by measuring change in IL-17 level at 100 mM, REC measured for 0 to 3 months by ELISA; conditions: in vivo, other, 100000 µM, time 0-3 months
[26] = Toxicity in wild type BALB/c mouse assessed as inflammatory symptoms by measuring change in IL-1beta level at 100 mM, ip measured for 0 to 3 months by ELISA; type: organism-based; conditions: in vivo, 100000 µM, time 0-3 months
[27] = Toxicity in wild type BALB/c mouse assessed as inflammatory symptoms by measuring change in IL-1beta level at 100 mM, REC measured for 0 to 3 months by ELISA; conditions: in vivo, other, 100000 µM, time 0-3 months
[28] = Toxicity in wild type BALB/c mouse assessed as inflammatory symptoms by measuring change in TNFalpha level at 100 mM, ip measured for 0 to 3 months by ELISA; type: organism-based; conditions: in vivo, 100000 µM, time 0-3 months
[29] = Toxicity in wild type BALB/c mouse assessed as inflammatory symptoms by measuring change in TNFalpha level at 100 mM, REC measured for 0 to 3 months by ELISA; conditions: in vivo, other, 100000 µM, time 0-3 months
HCT-116 [30] = assay: Induction of ROS production in human HCT-116 cells incubated for 48 hrs by DHE staining based analysis; type: functional, cell-based
HT-29 [31] = assay: Induction of ROS production in human HT-29 cells incubated for 48 hrs by DHE staining based analysis; type: functional, cell-based
HCT-116 [32] = assay: Induction of DNA damage in human HCT-116 cells by comet assay; type: functional, cell-based
HT-29 [33] = assay: Induction of DNA damage in human HT-29 cells by comet assay; type: functional, cell-based

Which Activity (HT-29 [1]) does the source give for `O=S(=O)(O)Oc1c[nH]c2ccccc12` [INDOXYL SULFATE] here?
The Activity was “Active”.

And the Activity (HCT-116 [2])?
Its Activity is “Active”.

What about the Activity (HT-29 [3]) of the same compound?
The Activity was “Active”.

And the Activity (HCT-116 [4])?
Its Activity is “Dose-Dependent Effect”.

And the Activity (HT-29 [5])?
Its Activity is “Dose-Dependent Effect”.

And the Activity (HCT-116 [6])?
Its Activity is 18.1%.

What about the Activity (HCT-116 [7]) of the same compound?
Its Activity is 22.7%.

And the Activity (HT-29 [8])?
The Activity was 14.2%.

And the Activity (HT-29 [9])?
The Activity was 17.3%.

And the Activity (HCT-116 [10])?
Its Activity is “Dose-Dependent Effect”.

What about the Activity (HT-29 [11]) of the same compound?
The Activity was “Dose-Dependent Effect”.

And the Activity [12]?
The Activity was “Non-Toxic”.

And the Activity [13]?
Its Activity is “Non-Toxic”.

What about the Activity [14] of the same compound?
Its Activity is “Non-Toxic”.

And the Activity [15]?
Its Activity is “Non-Toxic”.

What about the Activity [16] of the same compound?
The Activity was “Non-Toxic”.

What about the Activity [17] of the same compound?
Its Activity is “Non-Toxic”.

What about the Activity [18] of the same compound?
The Activity was “Non-Toxic”.

And the Activity [19]?
Its Activity is “Non-Toxic”.

What about the Activity [20] of the same compound?
Its Activity is “Non-Toxic”.

What about the Activity [21] of the same compound?
Its Activity is “Non-Toxic”.

And the Activity [22]?
Its Activity is “Non-Toxic”.

And the Activity [23]?
The Activity was “Non-Toxic”.

And the Activity [24]?
Its Activity is “Non-Toxic”.

What about the Activity [25] of the same compound?
Its Activity is “Non-Toxic”.

And the Activity [26]?
The Activity was “Non-Toxic”.

And the Activity [27]?
The Activity was “Non-Toxic”.

And the Activity [28]?
The Activity was “Non-Toxic”.

And the Activity [29]?
Its Activity is “Non-Toxic”.

What about the Activity (HCT-116 [30]) of the same compound?
Its Activity is “inactive”.

What about the Activity (HT-29 [31]) of the same compound?
Its Activity is “inactive”.

And the Activity (HCT-116 [32])?
Its Activity is “inactive”.

And the Activity (HT-29 [33])?
Its Activity is “inactive”.
